Laboratory results: patent US9457045B2, “Combination of anti-clusterin oligonucleotide with Hsp90 inhibitor for the treatment of prostate cancer” (The University of British Columbia, priority 2011, dated 2016)
Where two headings read alike, the source gives them in different places. In the oligonucleotide strings, read from the 5' end, every base follows the letter of its sugar. An asterisk marks phosphorothioate; unmarked linkages are phosphodiester. Other units and linkages are bracketed, terminal groups are in braces. A string of capitals states the bases alone. e = 2'-O-(2-methoxyethyl) (MOE); [5mC] = 5-methylcytosine; d = 2'-deoxy (DNA)

How the values were obtained:
[1] = 60 mg/kg/day (Glaze et al., 2005); cited from earlier work
HSF-1 = experiment: HSE-luciferase assay of HSF-1 activity; format: cell-based, human
Description: FIG. 3. CLU induction following Hsp90 inhibitor treatment is cytoprotective via an increase of HSF-1 activity. A, LNCaP cells were treated with indicated concentrations of Hsp90i-1 or Hsp90i-2 for 48 h. B, LNCaP cells were transiently transfected with indicated concentrations of CLU-plasmid for 48 h. Total amount of plasmid DNA transfected was normalized to 2 μg per well by the addition of an empty vector. C (Top), LNCaP cells were transfected with 20 nM CLU siRNA or control siScr, followed of Hsp90i-1 or Hsp90i-2 treatment (1 μM) for 48 h. C (bottom), LNCaP cells were treated twice with 300 nM custirsen or control ScrB ASO. D, LNCaP and PC-3 cells were treated twice with 300 nM custirsen or control ScrB ASO, followed by 1 μM of Hsp90i-1 or Hsp90i-2 for 48 h. Cells were harvested, and HSE-luciferase activity or western blotting analyses were performed. Means of at least three independent experiments done in triplicate. ***, p<0.001; *, p<0.05; ns, not significant.
LNCaP and C4-2 cells (2.5×10^5) were plated on six-plates and transfected using lipofectin (6 μL per well; Invitrogen Life Technologies, Inc.). The total amount HSE plasmids DNA used were normalized to 1 μg per well by the addition of a control plasmid. One μM HSP90i-2 or Hsp90i-1 was added 4 h after the transfection and for 48 h. HSE-luciferase activity was measured using Dual-Luciferase Reporter Assay System (Promega) with the aid of a microplate luminometer (EG&G Berthold). All experiments were carried out in triplicate wells and repeated 3 times using different preparations of plasmids.

CLU [2] = experiment: CLU expression in CRPC LNCaP xenografts (immunohistochemistry and western blot); format: in vivo, mice; conditions: 50 mg/kg Hsp90i-2-PRO for 6 weeks
Description: (§1) FIG. 2. Hsp90i-2 induces HSP and CLU expression in PCa xenografts. Mice were treated for 6 weeks with 50 mg/kg Hsp90i-2-PRO (the prodrug of Hsp90i-2) or vehicle (Control). A, tumors were collected and CLU and Hsp70 were evaluated by immunohistochemical analysis. B, total proteins were extracted from the xenograft tumors and CLU expression was analyzed by western blotting. The relative levels were normalized with GAPDH and estimated in densitometric units. ***, p<0.001.
(§2) Male athymic nude mice (Harlan Sprague-Dawley, Inc.) were injected s.c. with 2×10^6 LNCaP cells (suspended in 0.1 mL Matrigel; BD Biosciences). The mice were castrated once tumors reach between 300 and 500 mm^3 or the PSA level increased above 50 ng/mL. Once tumors progressed to castrate resistance, mice were randomly assigned to vehicle, Hsp90i-2-PRO alone, Hsp90i-2-PRO+ScrB ASO or Hsp90i-2-PRO+custirsen. […] Tumor volume was measured twice weekly (length×width×depth×0.5432). Serum PSA was determined weekly by enzymatic immunoassay (Abbott IMX, Montreal, Quebec, Canada). PSA doubling time (PSAdt) and velocity were calculated by the log-slope method (PSAt=PSAinitial×emt). Data points were expressed as average tumor volume±SEM or average PSA concentration±SEM. […]

[3] = tested on: castrate resistant LNCaP tumors; experiment: Castrate resistant LNCaP xenograft model; format: in vivo; conditions: for tumor volume: Hsp90i-2-PRO 25 mg/kg oral, ASO 15 mg/kg i.p.
Description: FIG. 6. […] Mice were treated with 25 mg/kg Hsp90i-2-PRO and 15 mg/kg custirsen starting when serum PSA values relapsed to pre-castration levels. […] Progression-free survival was defined as time for the first tumor volume doubling.
FIG. 7. […] A, tumors were collected after 57 days and CLU, Ki67, AR, AKT and TUNEL were evaluated by immunohistochemical analysis (original magnification: ×200). B, total proteins were extracted from the xenograft tumors and CLU, AR, Akt and PSA were analyzed by western blotting. The relative levels were normalized with vinculin and estimated in densitometric units±SEM.
Male athymic nude mice (Harlan Sprague-Dawley, Inc.) were injected s.c. with 2×10^6 LNCaP cells (suspended in 0.1 mL Matrigel; BD Biosciences). The mice were castrated once tumors reach between 300 and 500 mm^3 or the PSA level increased above 50 ng/mL. Once tumors progressed to castrate resistance, mice were randomly assigned to vehicle, Hsp90i-2-PRO alone, Hsp90i-2-PRO+ScrB ASO or Hsp90i-2-PRO+custirsen. Hsp90i-2-PRO (Prodrug, 25 mg/kg; formulation in 0.5% CMC+0.5% Tween-80) is orally administered three times per week and custirsen or ScrB ASO (15 mg/kg) was injected intra-peritoneally once daily for the first week and then three times per week. Each experimental group consisted of 10 mice. Tumor volume was measured twice weekly (length×width×depth×0.5432). Serum PSA was determined weekly by enzymatic immunoassay (Abbott IMX, Montreal, Quebec, Canada). PSA doubling time (PSAdt) and velocity were calculated by the log-slope method (PSAt=PSAinitial×emt). Data points were expressed as average tumor volume±SEM or average PSA concentration±SEM.
When tumor volume reached 10% of body weight, mice were sacrificed and tumors harvested for evaluation of protein expression by western blotting analyses and immunohistochemistry. All animal procedures were performed according to the guidelines of the Canadian Council on Animal Care and appropriate institutional certification.
Immunohistochemical stains were performed on formalin-fixed and paraffin-embedded 4 μm sections of tumor samples using adequate primary antibody, and the Ventana autostainer Discover XT (Ventana Medical System) with enzyme labeled biotin streptavidin system and solvent resistant 3,3′-diaminobenyidine Map kit. All comparisons of staining intensities were made at 200× magnifications.

[4] = tested on: castrate resistant LNCaP tumors; conditions: 50 mg/kg monotherapy, previous study (Lamoureux et al., 2011); cited from earlier work
Hsp70 = Hsp70 expression in CRPC LNCaP xenografts (immunohistochemistry); format: in vivo, mice; conditions: 50 mg/kg Hsp90i-2-PRO for 6 weeks
Description: as §1, §2

[5] = Toxicity of Hsp90 inhibitor monotherapy; format: in vivo; conditions: 50 mg/kg/day
LNCaP cells = experiment: Apoptosis assays: propidium iodide flow cytometry (subG1) and western blotting; format: cell-based, human; conditions: 300 nM custirsen or ScrB twice, then 1 μM Hsp90 inhibitor
Description: FIG. 4. Increased potency of CLU knockdown and Hsp90 inhibitor combination treatment in PCa cells. A, LNCaP cells were treated twice with 300 nM custirsen or control ScrB ASO, followed by the indicated concentration of Hsp90i-1 or Hsp90i-2 for 48 h. Cell growth was determined by crystal violet and compared with control. B, dose dependent effects and combination index (CI) values calculated by CalcuSyn software were assessed in LNCap cells treated for 48 h with custirsen alone, Hsp90i-2 alone or combined treatment at indicated concentration with constant ratio design between both drugs. […] C and D, LNCaP cells were treated twice with 300 nM custirsen or control ScrB, followed by 1 μM Hsp90i-1 or Hsp90i-2 for 48 h. […] The proportion of cells in subG1, G0-G1, S, G2-M was determined by propidium iodide staining and caspase-3 activity was determined on the cell lysates and the results are expressed in arbitrary units and corrected for protein content (D). […]
Prostate cells lines were plated in appropriate media (DMEM or RPMI) with 5% FBS and treated with Hsp90i-2-PRO or Hsp90i-1 at indicated concentration and time and cell growth was measured using the crystal violet assay as described previously (Leung et al., 2000). Detection and quantitation of apoptotic cells were done by flow-cytometry (described below) and western blotting analysis. […]

CLU [6] = conditions: Phase II studies (Chi et al., 2005); cited from earlier work
[7] = LNCaP cells, Hsp90 inhibitor at indicated concentrations 48 h, dose-dependent

C=CCNC1=C2C[C@@H](C)C[C@H](OC)[C@H](O)[C@@H](C)/C=C(\C)[C@H](OC(N)=O)[C@@H](OC)/C=C\C=C(/C)C(=O)NC(=CC1=O)C2=O [Hsp90i-1, 17-allylamino-17-demethoxygeldanamycin]
toxicity as monotherapy [1]: hepatotoxicity | HSF-1 activity (HSF-1; [7]): significantly induced

CC1(C)CC(=O)c2c(C(F)(F)F)nn(-c3ccc(C(N)=O)c(NC4CCC(O)CC4)c3)c2C1 (centres unmarked) [Hsp90i-2, 4-(6,6-Dimethyl-4-oxo-3-trifluoromethyl-4,5,6,7-tetrahydro-indazol-1-yl)-2-(4-hydroxy-cyclohexylamino)-benzamide]
HSF-1 activity (HSF-1; [7]): significantly induced

CC1(C)CC(=O)c2c(C(F)(F)F)nn(-c3ccc(C(N)=O)c(NC4CCC(OC(=O)CN)CC4)c3)c2C1 (centres unmarked) [Hsp90i-2-PRO]
CLU expression increase compared with vehicle treated tumor (CLU [2]): 4 fold | tumor volume ([3]; 7 weeks post treatment): 2483.6 mm^3 | tumor volume ([3]; at 10 days): 646.4 mm^3 | overall survival ([3]; by day 57): all mice died or were euthanized | mean PSA level ([3]; serum, after 42 days): 527 ng/mL | tumor volume / tumor progression ([3]; sub-therapeutic dose of 25 mg/kg/day HSP90i-2-PRO): marginal, non-significant decreases | effect on serum PSA levels ([3]; sub-therapeutic dose of 25 mg/kg/day, monotherapy): no effect | LNCaP CRPC tumor progression [4]: inhibited | Hsp70 increase compared with vehicle treated tumor (Hsp70): 2.3 fold | toxicity as monotherapy [5]: body weight loss

control ScrB ASO: scrambled control oligonucleotide with 2′-O-(2-methoxy)ethyl modification, 5′-CAGCGCTGACAACAGTTTCAT-3′ (SEQ ID NO: 44) (2'-O-methoxyethyl modified, pattern not given here)
apoptotic rates (subG1 fraction) (LNCaP cells): 4.2%

custirsen: antisense oligonucleotide reducing clusterin expression, CAGCAGCAGAGTCTTCATCAT (SEQ ID NO: 3), phosphorothioate backbone, 2′-O-methoxyethyl wings (antisense e[5mC]*eA*eG*e[5mC]*dA*dG*dC*dA*dG*dA*dG*dT*dC*dT*dT*dC*dA*eT*e[5mC]*eA*eT; listed as Homo sapiens)
inhibition of CLU in human prostate cancer tissues (CLU [6]): > 90% | apoptotic rates (subG1 fraction) (LNCaP cells): 17.4% | HSF-1 activity (HSF-1; LNCaP cells treated twice with 300 nM custirsen vs control ScrB ASO): significantly decreased
